# Test results reported in US12297222B2, “CD206 targeted drug delivery vehicles carrying novel bisphosphonate drug payloads via a degradable linker” (Navidea Biopharmaceuticals, Inc., priority 2022, dated 2025).
# Key:
# human macrophages [1] = experiment: Human macrophage cell culture assay: viability (DAPI-) by flow cytometry; assay type: cell-based; details: 24 hours treatment, then three days in fresh medium; any tested concentration
# Experimental: GM-CSF induces the macrophages to adopt an activated phenotype that is intermediate between the extremes of M1 or M2. […] The macrophage cell cultures were incubated with the supplemented complete medium for 24 hours after which it was removed and replaced with fresh complete medium. The macrophage cultures were then incubated for an additional three days. The three-day post treatment incubation was performed to permit assessment of durable changes in macrophage phenotypes. […] For each donor's macrophages, all experiments were run in triplicate.
# human macrophages [2] = experiment: Human macrophage cell culture assay: surface marker expression (MFI) by flow cytometry; assay type: cell-based
# Experimental: GM-CSF induces the macrophages to adopt an activated phenotype that is intermediate between the extremes of M1 or M2. […] The macrophage cell cultures were incubated with the supplemented complete medium for 24 hours after which it was removed and replaced with fresh complete medium. The macrophage cultures were then incubated for an additional three days. The three-day post treatment incubation was performed to permit assessment of durable changes in macrophage phenotypes.
# For each donor's macrophages, all experiments were run in triplicate.
SMILES,cell viability (human macrophages [1]),"expression levels of the evaluated surface markers (overall) (human macrophages [2]; FIG. 5, 80 μg of MAD-BIS-1 or equal molar free BIS-1, fold change in MFI vs saline)",changes in macrophage phenotype observed with MAD-BIS-1 (human macrophages [2]; free BIS-1 at any dose),"expression level of the evaluated surface markers (overall) (human macrophages [2]; FIG. 8, free BIS-2)"
"CC(=O)c1sc(NCC(P(=O)(O)O)P(=O)(O)O)nc1C [BIS-1, 2-(4-methyl-5-acetylthiazole-2-yl-amino)ethylidene 1,1-bisphosphonic acid]",neither MAD-BIS-1 nor free BIS-1 decreased cell viability,very little effect,could not be replicated,–
"CC(=O)c1cn(CC(C)(P(=O)(O)O)P(=O)(O)O)cn1 [BIS-2, 2-(4-acetylimidazole)ethylidene-1-methyl-1,1-bisphosphonic acid]",–,–,–,did not alter
